According to patent publication US20260101895A1, “[…] AND COMPOSITION” (Innospec Limited, priority 2022, published 2026):

Tests used:
[1] = initial solubility; 2 g complex in 100 ml deionised water, room temperature, 20 minutes, filtered 0.45 μm
From the text: By the term “copper bioavailability” we mean the amount of copper that is released upon contact with water, i.e. so as to provide free copper ions for consumption by fungi. Copper bioavailability values may be measured using any suitable method, including the method as set out in the Examples. The copper bioavailability may be determined by measuring the content of copper in a sample (for example using a colorimetric test that compares to copper nitrate solutions of known concentrations) and converting the copper content to an amount of bioavailable copper (in ppm) using the formula: […]
The copper content is converted to bioavailable copper using the formula:
A solution of each copper amino carboxylic acid complex was prepared by dissolving 2 g of the copper complex in 100 ml deionised water and stirring at room temperature for 20 minutes. A sample of this solution was then withdrawn and filtered through a 0.45 μm syringe.
The filtered copper liquid was diluted with 1% nitric acid to yield a solution containing an approximate maximum of 1 mg/L Cu2+. The total copper content was then determined using a Perkin Elmer NexION 350D and converted to bioavailable copper using the formula above.

[2] = Repeated solubility: copper bioavailability over repeated wettings (colorimetric); details: for Bioavailable copper Step 1 / Bioavailable copper Step 2 / Bioavailable copper Step 3 / Bioavailable copper Step 4 / Bioavailable copper Step 5: repeated solubility; for Bioavailable copper Step 1: 1 g complex in 50 ml deionised water, centrifuged, filtered, colorimetric 635 nm; for Bioavailable copper Step 2 / Bioavailable copper Step 3 / Bioavailable copper Step 4 / Bioavailable copper Step 5: undissolved material in 50 ml fresh deionised water
Protocol: The colorimetric absorbance at 635 nm using a Hach Lange DR3900 Spectrophotometer of copper nitrate solutions of known concentrations gives a linear relationship where:
Absorbance is relative to a standard solution of 9.9 ml deionised water, 0.1 ml 68 to 70% nitric acid
The copper content is converted to bioavailable copper using the formula: […]
To determine the copper content of each of the copper amino carboxylic acid complexes, 9.9 ml of filtered copper containing solution and 0.1 mL of 68 to 70% nitric acid was added to a spectrometer vial to completely react all of the copper complex to copper nitrate.
The absorbance at 635 nm (pre-zeroed with solution of 9.9 mL deionised water and 0.1 mL nitric acid) was recorded.
1 g of each copper amino carboxylic acid complex was added to 50 ml deionised water in a 50 ml centrifuge tube and stirred. The resulting mixture was centrifuged at 4000 rpm for 30 minutes, a sample of this was withdrawn and filtered through a 0.45 μm syringe. The copper content was determined using the above colorimetric method.
The remaining liquid in the centrifuge tube was poured away leaving only some undissolved material. 50 ml of fresh deionised water was added to the centrifuge tube containing undissolved material. The stirring and centrifugation process was repeated until no undissolved material remained.
These measurements indicate the bioavailability of the copper over repeated wettings in use.

Molecule: O=C([O-])CNCC(=O)[O-].[Cu+2] [Copper iminodiacetate]
- Bioavailable Cu by ICP-MS [1]: 33000 ppm
- Bioavailable copper Step 1 [2]: 27750 ppm
- Bioavailable copper Step 2 [2]: 27750 ppm
- Bioavailable copper Step 3 [2]: 27750 ppm
- Bioavailable copper Step 4 [2]: 27750 ppm
- Bioavailable copper Step 5 [2]: 27125 ppm
- Bioavailability over repeated wettings/steps (in words) ([2]; summary of Table 2): good bioavailability for 3 or more wettings/steps

Molecule: Copper 2-aminooctanoate
- Bioavailable Cu by ICP-MS [1]: 150 ppm

Molecule: Copper 12-aminododecanoate
- Bioavailable Cu by ICP-MS [1]: 9200 ppm

Molecule: Copper L-asparaginate
- Bioavailable Cu by ICP-MS [1]: 7125 ppm

Molecule: Copper isoleucinate
- Bioavailable Cu by ICP-MS [1]: 13050 ppm

Molecule: Copper lysinate
- Bioavailable Cu by ICP-MS [1]: 106950 ppm
- Bioavailable copper Step 1 [2]: 79000 ppm
- Bioavailable copper Step 2 [2]: 24000 ppm
- Bioavailable copper Step 3 [2]: 8375 ppm
- Bioavailable copper Step 4 [2]: 4000 ppm
- Bioavailable copper Step 5 [2]: 0 ppm

Molecule: Copper phenylalaninate
- Bioavailable Cu by ICP-MS [1]: 5250 ppm

Molecule: Copper sarcosinate
- Bioavailable Cu by ICP-MS [1]: 278000 ppm
